The text below walks through data of patent US6972287B1, “Method of inhibiting amyloid protein aggregation and imaging amyloid deposits” (Pfizer Inc., priority 1999, dated 2005).

Values joined by “and” are separate entries in the source; they are usually repeats but may differ in a detail not shown here. Identical values can stand only once. Counter-ions that a name gives are not always drawn. Where only a bound is given, the exact number is not on record here.

Assay type in all cases: biochemical
Assay [1] has as its target T1, Aβ(1-40) (Homo sapiens, UniProt P05067).
T1 construct: […]; purchased Bachem, Torrance, Calif
As to the kind of experiment: BASSR (Beta-Amyloid Self-Seeding Radioassay), inhibitors of self-seeded amyloid fibril growth. How it is done: BASSR (Beta-Amyloid Self-Seeding Radioassay)
(§1) An assay for inhibitors of self-seeded amyloid fibril growth
Assay Buffer—50 mM sodium phosphate, pH 7.5, 100 mM NaCl, 0.02% NaN3, 1 M urea (filter and store at 4° C.).
(§2) Typically, the solution should be stored until no lag phase is seen in the assay.
^125I-labeled Aβ(1-40)—150K-350K cpm/μL in 100% acetonitrile—0.1% trifluoroacetic acid (TFA)—1% β-mercaptoethanol (aliquots stored at −20° C.). ^125I-labeled Aβ(1-40) can be made in accordance with the procedure set forth by H. LeVine, III in Neurobiol. Aging, 16, 755, (1995), which is hereby incorporated by reference, or this reagent may be purchased from Amersham, Arlington Heights, Ill.
The following are the amounts of the components of the reaction mixture sufficient for 50 assay wells:
• 1) Prepare reaction mixture above by mixing components and storing on ice. • 2) Pipet 14.5 μL of reaction mixture into each of 50 wells on a polypropylene U-bottom 96-well microtiter plate on ice. (Costar 3794). • 3) Add 1.7 μL of diluted compound to be tested to each well in a column of eight, including solvent control. Serial 3-fold dilutions from 1 mM (100 μM final) in assay buffer−urea=7 dilutions+zero. Each 96-well plate can therefore accommodate 11 samples+1 Congo Red control (0.039-5 μM final in 2-fold steps). • 4) Seal the plate with aluminum film (Beckman 538619) and incubate for 10 minutes on ice. • 5) Raise the temperature to 37° C. and incubate for 3 to 5 hours (depending on the lot of the peptide). • 6) Remove the aluminum film and add 200 μL/well of ice cold assay buffer with urea, collecting the radiolabeled fibrils by vacuum filtration through 0.2 μm pore size GVWP filters in 96-well plates (Millipore MAGV N22, Bedford, Mass.). Determine the radioactivity of the filters using standard methods well-known to those skilled in the art. BASST (Beta-Amyloid Self-Seeding, Thioflavin T)

In a further assay the target is T2, Aβ (1-40) peptide (Homo sapiens, UniProt P05067).
T2 construct: 10 μL 0.5 mg/mL Aβ (1-40) peptide in 20% HFIP
T2 sequence (P05067 672-711 limits assumed): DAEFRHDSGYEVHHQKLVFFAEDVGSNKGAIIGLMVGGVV
Put plainly: BAPA (Beta-Amyloid Peptide Aggregation, pH 6.0, filtration). Conditions: Aβ (1-40) 33 μM, pH 6.0, 2 to 4 hours at room temperature; replicate values; letter = synthetic lot. How it is done: Each 96-well plate can therefore accommodate 11 samples+1 Congo Red control (0.039-5 μM final in 2-fold steps). • 4) Seal the plate with aluminum film and incubate for 10 minutes on ice. • 5) Raise the temperature to 37° C. and incubate for 3 to 5 hours (depends on the lot of the peptide). • 6) Remove the aluminum film and add 250 μL/well of 5 μM thioflavin T (ThT) [T-3516, Sigma-Aldrich] in 50 mM glycine-NaOH, pH 8.5. […] The purpose of this assays is to provide a higher volume method of assaying the amount of beta amyloid aggregation using an endpoint assay based on filtration. In this assay, hexafluoroisopropanol (HFIP) is used to break down the initial amyloid peptide to a monomer state and use a concentration of 33 μM which is high enough so that aggregation will occur at pH 6.0 in several hours. Methods: […] Then, we incubate for 2 to 4 hours at room temperature. […] We wash the filter plate with 100 μL of the same phosphate buffer. Aggregation was detected on a Microbeta counter after impregnating the filters with Meltilex (1450-441) and is corrected for background.

The target in assay [2] is T1, Aβ(1-40). As to the kind of experiment: BASST (Beta-Amyloid Self-Seeding, Thioflavin T), inhibitors of self-seeded amyloid fibril growth. Conditions: read-out: BASST (IC50 = μM). How it is done:
as §1
Assay Buffer—50 mM sodium phosphate, pH 7.5, 100 mM NaCl, 0.02% NaN3, 1 M urea (filter and store at 4° C.)
as §2
The following are the amounts of the components of the reaction mixture that result in each of the 50 assay wells:
• 1) Prepare the reaction mix above by mixing the components and storing on ice. • 2) Pipet 14.5 μL of reaction mixture into each of 50 wells of a polystyrene U-bottom 96-well microtiter plate (Corning 25881-96) on ice. • 3) Add 1.7 μL of diluted compound to be tested to each well in a column of eight, including solvent control. Serial 3-fold dilutions from 1 mM (100 μM final) in assay buffer−urea=7 dilutions+zero. Each 96-well plate can therefore accommodate 11 samples+1 Congo Red control (0.039-5 μM final in 2-fold steps). • 4) Seal the plate with aluminum film and incubate for 10 minutes on ice. • 5) Raise the temperature to 37° C. and incubate for 3 to 5 hours (depends on the lot of the peptide). • 6) Remove the aluminum film and add 250 μL/well of 5 μM thioflavin T (ThT) [T-3516, Sigma-Aldrich] in 50 mM glycine-NaOH, pH 8.5. Read fluorescence on a plate reader (ex=440 nm/20 nm; em=485 nm/20 nm) within 5 minutes. BAPA (Beta-Amyloid Peptide Aggregation)

The next assay addresses T3, Aβ (1-42) (Homo sapiens, UniProt P05067).
T3 construct: Required Aβ (1-42) (California Peptide) was dried from its hexafluoroisopropanol (HFIP) stock solution; purchased California Peptide
As to the kind of experiment: BATYM assay (Aβ (1-42) aggregation, Thioflavin T fluorescence). Conditions: Aβ 1-42 final concentration 100 μM, 37° C., 1 day, letter = synthetic lot. How it is done: Required Aβ (1-42) (California Peptide) was dried from its hexafluoroisopropanol (HFIP) stock solution. The Aβ (1-42) was dissolved in dimethylsulfoxide (DMSO) and then mixed with phosphate buffered saline (PBS) (pH 7.4). The mixed Aβ (1-42) solution was filtered with a 0.2 μm Omnipore membrane syringe filter Millipore, Bedford, Mass.). The compound to be tested in DMSO (50 times concentrate) was put into each well (0.5 μL/well) of a 96-well plate. The Aβ (1-42) solution was added into each well (24.5 μL/well). The plate was centrifuged at 1,000 g for 5 minutes and incubated at 37° C. for 1 day (Aβ 1-42; final concentration 100 μM).
After incubation Thioflavin T (ThT) (30 μM) solution in glycine-NaOH buffer (pH 8.5, 50 mM) was added into each well (250 μL/well), fluorescence was measured (ex=440/20 nm, em=485/20 nm) using a fluorescence plate reader. The inhibitory activity was calculated as the reduction of fluorescence with the following formula: Inhibition (%)={(F(Aβ)−F(Aβ+compound)}/{F(Aβ)−[…]}×100
The IC50s were calculated by a curve fitting program using the following equation. The data were obtained from two different experiments in triplicate.
x=Concentration of tested compound (M),

[3] abbreviates: 30 μM soluble Aβ(1-40) + 125I-labeled Aβ(1-40), 37° C., 3 to 5 hours, replicate values, letter = synthetic lot, ppt = precipitate, V-shaped = inhibition followed by precipitation.
Where [4] appears, read: 30 μM soluble Aβ(1-40), 37° C., 3 to 5 hours, thioflavin T fluorescence, replicate values, letter = synthetic lot.

T1 sequence (P05067 672-711 limits assumed): as above
T3 sequence (P05067 672-713 limits assumed): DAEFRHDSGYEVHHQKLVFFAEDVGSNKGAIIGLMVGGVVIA

As for “2-{4-[2-(3,4-Dichloro-phenyl)-ethyl]-phenylamino}-benzoate-2-hydroxy-1,1-bis hydroxymethyl-ethyl-ammonium [Example 120]”, the IC50 was above 100 µM at Aβ(1-40) [1], above 60 µM at Aβ (1-40) peptide and 3 µM on Aβ(1-40) [2].

For the molecule `O=C(O)c1cc([N+](=O)[O-])c(-n2ccnc2)cc1Nc1ccc(CCCc2ccc(Cl)c(Cl)c2)cc1` [Example 8], the IC50 on Aβ (1-42) was 7.17 µM; at Aβ(1-40) [1] (setting [3]), 15 µM (3×) and 18 µM.

Consider `O=C(O)c1ccccc1Nc1ccc(CCCc2ccc(N3CCCCC3)cc2)cc1` [Example 47, 2-{4-[3-(4-Piperidin-1-ylphenyl)propyl]phenylamino}benzoic acid], for which the IC50 at Aβ (1-42) was 38.2 µM; on Aβ(1-40) [1] (setting [3]), above 100 µM; on Aβ(1-40) [2] (setting [4]) it was 2 µM.

On to `CCCNc1ccc(CCCc2ccc(Nc3ccccc3C(=O)O)cc2)cc1` [Example 51, 2-{4-[3-(4-Propylaminophenyl)propyl]phenylamino}benzoic acid], for which the results for the IC50 at Aβ (1-42), on Aβ(1-40) [1] (setting [3]) and at Aβ(1-40) [2] (setting [4]) were 39.1 µM, 85 µM and 0.8 µM, respectively.

Take `CCCNc1cccc(CCCc2ccc(Nc3ccccc3C(=O)O)cc2)c1` [Example 52, 2-{4-[3-(3-Propylaminophenyl)propyl]phenylamino}benzoic acid]: the IC50 turned out to be 36.5 µM at Aβ (1-42), 75 µM on Aβ(1-40) [1] (setting [3]) and 0.5 µM on Aβ(1-40) [2] (setting [4]).

For the molecule `Cc1cc(-c2cc(Cl)cc(Cl)c2)ccc1Nc1ccccc1C(=O)O` [Example 83, 2-(3′,5′-Dichloro-3-methyl-biphenyl-4-ylamino)-benzoic acid], the IC50 on Aβ(1-40) [1] (setting [3]) is above 100 µM; against Aβ (1-40) peptide, 9 µM and 47 µM and 29 µM; on Aβ(1-40) [2] (setting [4]), above 100 µM.

As to `Cc1cc(-c2cc(Br)cc(Br)c2)ccc1Nc1ccccc1C(=O)O` [Example 84, 2-(3′,5′-Dibromo-3-methyl-biphenyl-4-ylamino)-benzoic acid], the IC50 is above 100 µM on Aβ(1-40) [1] (setting [3]); 5 µM and 21 µM at Aβ (1-40) peptide; above 100 µM on Aβ(1-40) [2] (setting [4]).

For `Cc1cc(-c2ccc3c(c2)OCO3)ccc1Nc1ccccc1C(=O)O` [Example 85, 2-(4-1,3-Benzodioxol-5-yl-2-methyl-phenylamino)-benzoic acid], the IC50 was above 100 µM at Aβ(1-40) [1] (setting [3]); 8 µM and 77 µM and 45 µM against Aβ (1-40) peptide; 18 µM at Aβ(1-40) [2] (setting [4]).

For `O=C(O)c1ccccc1Nc1ccc(-c2ccc(Cl)cc2Cl)c(Cl)c1` [Example 86, 2-(2,2′,4′-Trichloro-biphenyl-4-ylamino)-benzoic acid], the IC50 is 40 µM at Aβ(1-40) [1] (setting [3]); > 10 µM and 89 µM and 37 µM against Aβ (1-40) peptide; 18 µM at Aβ(1-40) [2] (setting [4]).

Consider `O=C(O)c1ccccc1Nc1ccc(-c2ccc(F)c(F)c2)c(Cl)c1` [Example 87, 2-(2-Chloro-3′,4′-difluoro-biphenyl-4-ylamino)-benzoic acid], for which the IC50 on Aβ(1-40) [1] (setting [3]) was above 100 µM; against Aβ (1-40) peptide it was > 10 µM and 15 µM and 32 µM; at Aβ(1-40) [2] (setting [4]), 50 µM.

`O=C(O)c1ccccc1Nc1ccc(-c2cccc(Br)c2)c(Cl)c1` [Example 88, 2-(3′-Bromo-2-chloro-biphenyl-4-ylamino)-benzoic acid]: the half-inhibitory concentration (IC50) at Aβ(1-40) [1] (setting [3]) was above 100 µM; on Aβ (1-40) peptide, > 10 µM and 37 µM and 27 µM; at Aβ(1-40) [2] (setting [4]) it was 10 µM.

For `O=C(O)c1ccccc1Nc1ccc(CCc2ccc(Cl)c(Cl)c2)cc1` [Example 118, 2-{4-[2-(3,4-Dichloro-phenyl)-ethyl]-phenylamino}-benzoic acid monopotassium], the values for the IC50 at Aβ(1-40) [1] (setting [3]), against Aβ (1-40) peptide and at Aβ(1-40) [2] (setting [4]) were above 100 µM, above 60 µM and 6 µM, respectively.

For the molecule `O=C(O)c1ccccc1Nc1ccc(CCc2ccc(Cl)c(Cl)c2)cc1` [Example 119, 2-{4-[2-(3,4-Dichloro-phenyl)-ethyl]-phenylamino}-benzoic acid calcium salt (1:1)], the IC50 on Aβ(1-40) [1] (setting [3]) is above 100 µM; against Aβ (1-40) peptide it was above 60 µM; on Aβ(1-40) [2], 3 µM.

As to `O=C(O)c1cc(C(F)(F)F)ccc1Nc1ccc(CCc2ccc(Cl)c(Cl)c2)cc1` [Example 143, 2-{4-[2-(3,4-Dichlorophenyl)-ethyl]-phenylamino}-5-trifuoromethyl-benzoic acid], the IC50 was above 100 µM against Aβ (1-42); above 100 µM against Aβ(1-40) [1]; 40 µM and 30 µM on Aβ(1-40) [2].

`CN(c1ccc(CCc2ccc(Cl)c(Cl)c2)cc1)c1ccccc1C(=O)O` [Example 148, 2-({4-[2-(3,4-Dichloro-phenyl)-ethyl]-phenyl}-methyl-amino)-benzoic acid]: the half-inhibitory concentration (IC50) on Aβ (1-42) and at Aβ(1-40) [1] (setting [3]) was above 100 µM each time.

In the case of `O=C(O)c1ccccc1Nc1cccc(CCc2ccc(Cl)cc2)c1` [Example 154, 2-{3-[2-(4-Chlorophenyl)ethyl]phenylamino}-benzoic acid], the IC50 against Aβ (1-42) is 70.8 µM; on Aβ(1-40) [1] (setting [3]), above 100 µM.

On to `O=C(O)c1ccccc1Nc1cccc(CCCc2ccc(Cl)c(Cl)c2)c1` [Example 155, 2-{3-[3-(3,4-Dichlorophenyl)propyl]phenylamino}-benzoic acid], for which the values for the IC50 against Aβ (1-42), on Aβ(1-40) [1] (setting [3]) and on Aβ(1-40) [2] (setting [4]) were 44.6 µM, above 100 µM and 3 µM, respectively.

On Aβ (1-42), `CCN(CC)c1ccc(CCCc2cccc(Nc3ccccc3C(=O)O)c2)cc1` [Example 156, 2-{3-[3-(4-Diethylaminophenyl)propyl]phenylamino}-benzoic acid] registered an IC50 of 27.8 µM.

Regarding `CCCN(CCC)c1ccc(CCCc2cccc(Nc3ccccc3C(=O)O)c2)cc1` [Example 157, 2-{3-[3-(4-Di-n-propylaminophenyl)propyl]phenylamino}-benzoic acid], the IC50 against Aβ (1-42) was determined as 25.9 µM.
